Assay results published in US6043217A, “Amide derivative of amythiamicin” (Zaidan Hojin Biseibutsu Kagaku Kenyu Kai, priority 1996, dated 2000).

How the values were obtained:
Assay type in all cases: cell-based
[1] = test system: Staphylococcus aureus FDA 209P; experiment: MIC, standard serial dilution method; details: Muller-Hinton agar medium, 37° C.
[2] = test system: Staphylococcus aureus Smith; experiment: MIC, standard serial dilution method; details: Muller-Hinton agar medium, 37° C.
[3] = test system: Staphylococcus aureus MS 9610; experiment: MIC, standard serial dilution method; details: Muller-Hinton agar medium, 37° C.
[4] = test system: Staphylococcus aureus No. 5 (MRSA); experiment: MIC, standard serial dilution method; details: Muller-Hinton agar medium, 37° C.
[5] = test system: Staphylococcus aureus No. 17 (MRSA); experiment: MIC, standard serial dilution method; details: Muller-Hinton agar medium, 37° C.
[6] = test system: Staphylococcus aureus MS 16526; experiment: MIC, standard serial dilution method; details: Muller-Hinton agar medium, 37° C.
[7] = test system: Staphylococcus aureus TY-0428; experiment: MIC, standard serial dilution method; details: Muller-Hinton agar medium, 37° C.
[8] = test system: Micrococcus luteus FDA 16; experiment: MIC, standard serial dilution method; details: Muller-Hinton agar medium, 37° C.
[9] = test system: Micrococcus luteus IFO 3333; experiment: MIC, standard serial dilution method; details: Muller-Hinton agar medium, 37° C.
[10] = test system: Micrococcus luteus PIC 1001; experiment: MIC, standard serial dilution method; details: Muller-Hinton agar medium, 37° C.
[11] = test system: Bacillus anthracis; details: Muller-Hinton agar medium, 37° C.
[12] = test system: Bacillus subtilis NRRL B-558; experiment: MIC, standard serial dilution method; details: Muller-Hinton agar medium, 37° C.
[13] = test system: Bacillus subtilis PCI 219; experiment: MIC, standard serial dilution method; details: Muller-Hinton agar medium, 37° C.
[14] = test system: Bacillus cereus ATCC 10702; experiment: MIC, standard serial dilution method; details: Muller-Hinton agar medium, 37° C.
[15] = test system: Corynebacterium bovis 1810; experiment: MIC, standard serial dilution method; details: Muller-Hinton agar medium, 37° C.
[16] = test system: Escherichia coli NIHJ; experiment: MIC, standard serial dilution method; details: Muller-Hinton agar medium, 37° C.
[17] = test system: Escherichia coli K-12; experiment: MIC, standard serial dilution method; details: Muller-Hinton agar medium, 37° C.
[18] = test system: Escherichia coli BEM 11; experiment: MIC, standard serial dilution method; details: Muller-Hinton agar medium, 37° C.
[19] = test system: Escherichia coli BEM 1121; experiment: MIC, standard serial dilution method; details: Muller-Hinton agar medium, 37° C.
[20] = test system: Escherichia coli BE 1186; experiment: MIC, standard serial dilution method; details: Muller-Hinton agar medium, 37° C.
[21] = test system: Shigella dysenteria JS 11910; experiment: MIC, standard serial dilution method; details: Muller-Hinton agar medium, 37° C.
[22] = test system: Escherichia coli K-12 ML 1692; experiment: MIC, standard serial dilution method; details: Muller-Hinton agar medium, 37° C.
Procedure: (§1) The antibacterial activities of the amythiamicin amide derivative of the general formula (I) according to this invention are now concretely described. Compounds No. 1 to No. 11 according to this invention, which were respectively prepared in Examples 1 to 11 hereinafter given, were tested as the test compounds for their minimum inhibitory concentrations (MIC.) (μg/ml) against growth of a variety of test microorganisms by a standard serial dilution method. In the tests, the incubation medium used was Muller-Hinton agar medium and the incubation temperature was 37° C. The test results are shown as antibacterial spectra in the following Tables 2 and 3.

[23] = test system: Shigella clexnerl JS 11749; experiment: MIC, standard serial dilution method; details: Muller-Hinton agar medium, 37° C.
Procedure: as §1

[24] = test system: Shigella sonnei JS 11746; experiment: MIC, standard serial dilution method; details: Muller-Hinton agar medium, 37° C.
Procedure: as §1

[25] = test system: Salmonella typhi T-63; experiment: MIC, standard serial dilution method; details: Muller-Hinton agar medium, 37° C.
[26] = test system: Salmonella enteritidis 1891; experiment: MIC, standard serial dilution method; details: Muller-Hinton agar medium, 37° C.
[27] = test system: Proteus vulgaris OX 19; experiment: MIC, standard serial dilution method; details: Muller-Hinton agar medium, 37° C.
[28] = test system: Proteus mirabilis IFM OM-9; experiment: MIC, standard serial dilution method; details: Muller-Hinton agar medium, 37° C.
[29] = test system: Providencia rettgeri GN 311; experiment: MIC, standard serial dilution method; details: Muller-Hinton agar medium, 37° C.
[30] = test system: Providencia rettgeri GN 466; experiment: MIC, standard serial dilution method; details: Muller-Hinton agar medium, 37° C.
[31] = test system: Serratia marcescens; experiment: MIC, standard serial dilution method; details: Muller-Hinton agar medium, 37° C.
[32] = test system: Pseudomonas aeruginosa A3; experiment: MIC, standard serial dilution method; details: Muller-Hinton agar medium, 37° C.
[33] = test system: Pseudomonas aeruginosa GN315; experiment: MIC, standard serial dilution method; details: Muller-Hinton agar medium, 37° C.
[34] = test system: Klebsiella pneumonia PCI 602; experiment: MIC, standard serial dilution method; details: Klebsiella pneumonia PCI 602 (Table 2); Muller-Hinton agar medium, 37° C.
[35] = test system: Mycobacterium smegmatis ATCC 607; experiment: MIC, standard serial dilution method; details: Muller-Hinton agar medium, 37° C.
[36] = test system: Candida albicans 3147; experiment: MIC, standard serial dilution method; details: Muller-Hinton agar medium, 37° C.

Row | Compound | Minimum growth inhibitory concentrations (MIC.) [1] [µg/mL] | Minimum growth inhibitory concentrations (MIC.) [2] [µg/mL] | Minimum growth inhibitory concentrations (MIC.) [3] [µg/mL] | Minimum growth inhibitory concentrations (MIC.) [4] [µg/mL] | Minimum growth inhibitory concentrations (MIC.) [5] [µg/mL] | Minimum growth inhibitory concentrations (MIC.) [6] [µg/mL] | Minimum growth inhibitory concentrations (MIC.) [7] [µg/mL] | Minimum growth inhibitory concentrations (MIC.) [8] [µg/mL] | Minimum growth inhibitory concentrations (MIC.) [9] [µg/mL] | Minimum growth inhibitory concentrations (MIC.) [10] [µg/mL] | Minimum growth inhibitory concentrations (MIC.) [11] [µg/mL] | Minimum growth inhibitory concentrations (MIC.) [12] [µg/mL] | Minimum growth inhibitory concentrations (MIC.) [13] [µg/mL] | Minimum growth inhibitory concentrations (MIC.) [14] [µg/mL] | Minimum growth inhibitory concentrations (MIC.) [15] [µg/mL] | Minimum growth inhibitory concentrations (MIC.) [16] [µg/mL] | Minimum growth inhibitory concentrations (MIC.) [17] [µg/mL] | Minimum growth inhibitory concentrations (MIC.) [18] [µg/mL] | Minimum growth inhibitory concentrations (MIC.) [19] [µg/mL] | Minimum growth inhibitory concentrations (MIC.) [20] [µg/mL] | further results
1 | CNC(=O)CC1NC(=O)c2csc(n2)-c2ccc(-c3nc(C(=O)NCCCN(C)CCCN)cs3)nc2-c2csc(n2)-c2csc(n2)C(C(C)C)NC(=O)CNC(=O)c2csc(n2)C(C(C)C)NC(=O)c2nc1sc2C (stereo not drawn) [Compound No. 4] | 12.5 | 12.5 | 50 | > 100 | > 100 | > 100 | > 100 | > 100 | > 100 | 3.12 | 3.12 | > 100 | > 100 | 6.25 | > 100 | > 100 | > 100 | > 100 | > 100 | > 100 | Minimum growth inhibitory concentrations (MIC.) [21]: > 100 µg/mL; Minimum growth inhibitory concentrations (MIC.) [22]: > 100 µg/mL; Minimum growth inhibitory concentrations (MIC.) [23]: > 100 µg/mL; Minimum growth inhibitory concentrations (MIC.) [24]: > 100 µg/mL; Minimum growth inhibitory concentrations (MIC.) [25]: > 100 µg/mL; Minimum growth inhibitory concentrations (MIC.) [26]: > 100 µg/mL; Minimum growth inhibitory concentrations (MIC.) [27]: > 100 µg/mL; Minimum growth inhibitory concentrations (MIC.) [28]: > 100 µg/mL; Minimum growth inhibitory concentrations (MIC.) [29]: > 100 µg/mL; Minimum growth inhibitory concentrations (MIC.) [30]: > 100 µg/mL; Minimum growth inhibitory concentrations (MIC.) [31]: > 100 µg/mL; Minimum growth inhibitory concentrations (MIC.) [32]: > 100 µg/mL; Minimum growth inhibitory concentrations (MIC.) [33]: > 100 µg/mL; Minimum growth inhibitory concentrations (MIC.) [34]: > 100 µg/mL; Minimum growth inhibitory concentrations (MIC.) [35]: > 100 µg/mL; Minimum growth inhibitory concentrations (MIC.) [36]: > 100 µg/mL
2 | CNC(=O)CC1NC(=O)c2csc(n2)-c2ccc(-c3nc(C(=O)NCCCN)cs3)nc2-c2csc(n2)-c2csc(n2)C(C(C)C)NC(=O)CNC(=O)c2csc(n2)C(C(C)C)NC(=O)c2nc1sc2C (stereo not drawn) [Compound No. 5] | 0.78 | 3.12 | 3.12 | 6.25 | 6.25 | 6.25 | 3.12 | 12.5 | 3.12 | 0.78 | 0.78 | 6.25 | 3.12 | 1.56 | > 100 | > 100 | > 100 | > 100 | > 100 | > 100 | Minimum growth inhibitory concentrations (MIC.) [21]: > 100 µg/mL; Minimum growth inhibitory concentrations (MIC.) [22]: > 100 µg/mL; Minimum growth inhibitory concentrations (MIC.) [23]: > 100 µg/mL; Minimum growth inhibitory concentrations (MIC.) [24]: > 100 µg/mL; Minimum growth inhibitory concentrations (MIC.) [25]: > 100 µg/mL; Minimum growth inhibitory concentrations (MIC.) [26]: > 100 µg/mL; Minimum growth inhibitory concentrations (MIC.) [27]: > 100 µg/mL; Minimum growth inhibitory concentrations (MIC.) [28]: > 100 µg/mL; Minimum growth inhibitory concentrations (MIC.) [29]: > 100 µg/mL; Minimum growth inhibitory concentrations (MIC.) [30]: > 100 µg/mL; Minimum growth inhibitory concentrations (MIC.) [31]: > 100 µg/mL; Minimum growth inhibitory concentrations (MIC.) [32]: > 100 µg/mL; Minimum growth inhibitory concentrations (MIC.) [33]: > 100 µg/mL; Minimum growth inhibitory concentrations (MIC.) [34]: > 100 µg/mL; Minimum growth inhibitory concentrations (MIC.) [35]: > 100 µg/mL; Minimum growth inhibitory concentrations (MIC.) [36]: > 100 µg/mL
3 | CCCCNCCCNCCCNC(=O)c1csc(-c2ccc3c(n2)-c2csc(n2)-c2csc(n2)C(C(C)C)NC(=O)CNC(=O)c2csc(n2)C(C(C)C)NC(=O)c2nc(sc2C)C(CC(=O)NC)NC(=O)c2csc-3n2)n1 (stereo not drawn) [Compound No. 6] | 50 | 25 | > 100 | > 100 | > 100 | > 100 | > 100 | > 100 | > 100 | > 100 | 25 | 25 | > 100 | > 100 | > 100 | > 100 | > 100 | > 100 | > 100 | > 100 | Minimum growth inhibitory concentrations (MIC.) [21]: > 100 µg/mL; Minimum growth inhibitory concentrations (MIC.) [22]: > 100 µg/mL; Minimum growth inhibitory concentrations (MIC.) [23]: > 100 µg/mL; Minimum growth inhibitory concentrations (MIC.) [24]: > 100 µg/mL; Minimum growth inhibitory concentrations (MIC.) [25]: > 100 µg/mL; Minimum growth inhibitory concentrations (MIC.) [26]: > 100 µg/mL; Minimum growth inhibitory concentrations (MIC.) [27]: > 100 µg/mL; Minimum growth inhibitory concentrations (MIC.) [28]: > 100 µg/mL; Minimum growth inhibitory concentrations (MIC.) [29]: > 100 µg/mL; Minimum growth inhibitory concentrations (MIC.) [30]: > 100 µg/mL; Minimum growth inhibitory concentrations (MIC.) [31]: > 100 µg/mL; Minimum growth inhibitory concentrations (MIC.) [32]: > 100 µg/mL; Minimum growth inhibitory concentrations (MIC.) [33]: > 100 µg/mL; Minimum growth inhibitory concentrations (MIC.) [34]: > 100 µg/mL; Minimum growth inhibitory concentrations (MIC.) [35]: > 100 µg/mL; Minimum growth inhibitory concentrations (MIC.) [36]: > 100 µg/mL
